Source: patent US7662780B2, “Administering hypocretin to obese individuals” (The Regents of the University of California, priority 2003, dated 2010)
Where no end group is shown, it is not given here.

Legend:
[1] = tested on: Hcrt-1 antiserum; experiment: Solid-phase radioimmunoassay (RIA) for Hcrt-1; format: binding; settings: competition with 125I-labeled Hcrt-1 for immobilized antiserum
Experimental: FIG. 2. The protocol for a sequential multiple antigen radioimmunoassay for hypocretin-1 (Hcrt-1) and hypocretin-2 (Hcrt-2). Sample or standard is loaded into wells onto which antiserum for Hcrt-1 has been pre-adsorbed via protein-A Subsequently, radiolabeled Hcrt-1 (Hcrt-1*) is added to the wells. Competition for the antiserum then ensues between Hcrt-1 and Hcrt-1*. The contents of the wells are then transferred to new wells onto which antiserum for Hcrt-2 has been preadsorbed and the procedure repeated but with radiolabeled Hcrt-2 (Hcrt-2*). The previous wells are washed and counted for bound radioactivity. […]
Furthermore, sensitivity is increased over that obtained with more traditional methods using identical antibodies and assay volumes. […] For example, the individual wells of a 96-well plate containing Ab-bound tracer peptide are then physically separated and counted in a gamma counter. […]
The Hcrt-1, iodinated Hcrt-1, and Hcrt-1 antiserum were obtained from Phoenix Pharmaceuticals, Inc. (530 Harbor Blvd, Belmont, Calif.). […] This enables direct reading of radioactivity in a Top Count plate reader (Packard) without the requirement to separate out individual wells. […]
Prior to RIA, Hcrt-1 is extracted from the CSF or plasma sample. […] The eluant is then dried down and re-suspended in RIA buffer ready for assay. […]

[2] = Motor activity (actigraph) after Hcrt-1 injection; format: in vivo
Experimental: FIG. 1. Acute changes in motor activity after Hcrt-1 administration. (a) A representative actigraph record (5 minute bins) showing the activity level during the 2 hr period following Hcrt-1 (3 μg/kg) and normal saline. Hcrt-1 produced an increase in motor activity within 5 minutes of injection that persisted for 60 minutes. […] In (b) values are mean±SE, *p<0.05; **p<0.01, Newman-Keuls test.
The motor or muscular activity level of the individual can be measured by a variety of means. Motor activity levels may be directly observed and measured by clinicians, or the individual may themselves measure their activity level which typically includes body movement or locomotion. The monitoring can include maintaining a log of activity, including intensity and duration of the activity. An actigraph device, or activity monitor, may be used. An actigraph detects activity by sensing motion via an internal accelerometer. It is a small lightweight instrument that can be worn, for example, on the wrist, waist, or ankle to record physical activity. Actigraphs are often used to estimate energy expenditure or to study motion in an individual, as described in Example 4 and shown in FIG. 1.
The differences in amplitude of motor activity following hypocretin and saline injection diminished over the following 60 minutes (FIGS. 1a, 1b).

[3] = Activity of hypocretin in obese humans: wrist actigraph and body weight; format: in vivo; settings: about 0.03 to about 600 μg/kg/day for four weeks, vs placebo control group
Source text: Hypocretin or hypocretin agonist is submitted to safety testing following usual Food and Drug Administration (FDA) requirements. Afterward, the effect of administration of hypocretin or hypocretin agonist on obese humans is investigated. The study includes ten humans in the experimental group and ten humans in the control group. Humans in the experimental and control groups receive administration by intranasal inhalant, or by transdermal or other means. The experimental group receives hypocretin or hypocretin agonist at dosing regimes of about 0.03 μg/kg/day to about 600 μg/kg/day for a period of four weeks. The control group receives a placebo. Activity levels of the humans in both groups are measured with a wrist actigraph, and each human is weighed daily (or another sign of excess body weight is measured).
Each animal is weighed daily, and the running wheel activity for each animal is recorded.

[4] = Hypocretin via ventricular injection (osmotic minipump): running wheel activity and body weight; format: in vivo, rat; settings: third ventricle minipump, about 0.03 to about 600 μg/kg/day, vs control and untreated animals
Source text: The effect of hypocretin administration on the body weight of a normal rat or other rodent is investigated. The study includes ten animals in the experimental group, ten animals in the control group, and ten animals in the untreated group. […] Animals in the experimental and control groups are fitted with an Alzet Model 2004 osmotic minipump (Alza). The minipump delivers solution to the third ventricle of the brain, adjacent to the hypothalamus, for a one to six month period. The experimental group receives hypocretin peptide continuously at dosing regimes of about 0.03 μg/kg/day to about 600 μg/kg/day. The control group receives diluent. Animals in all groups are provided with a running wheel and customary rat chow is available ad libitum. Each animal is weighed daily (or another sign of excess body weight is measured), and the running wheel activity for each animal is recorded.

[5] = Hypocretin via jugular catheter/osmotic minipump: running wheel activity and body weight; format: in vivo, rats; settings: about 0.03 to about 600 μg/kg/day, vs control and untreated animals
Experimental: The effect of administration of hypocretin-1 or other agonists of the hypocretin receptors on rats is investigated. The study includes ten animals in the experimental group, ten animals in the control group, and ten animals in the untreated group. […] Animals in the experimental and control groups receive a jugular catheter implant attached to an osmotic minipump. The experimental group receives hypocretin-1 or other agonist at dosing regimes of about 0.03 μg/kg/day to about 600 μg/kg/day. The control group receives diluent. Animals in all groups are provided with a running wheel and customary rat chow is available ad libitum. Each animal is weighed daily (or another sign of excess body weight is measured), and the running wheel activity for each animal is recorded.

[6] = Hcrt-1 3 μg/kg vs normal saline, actigraph record

Question: What does the source list for “hypocretin-1 (QPLPDCCRQKTCSCRLYELLHGAGNHAAGILTL; ends and bridges not checked; cysteine pairing not given here; UniProt O43612 34-66, looked up) [Hcrt-1, hypocretin neuropeptide derived from prepro-hypocretin; human orexin-A is reported as a 33 residue peptide of 3562 Da]”?
Answer: IC50 value for this Hcrt-1 assay [1]: 2 fmol; increase of motor activity as compared to saline control ([2]; 0-30 and 30-60 minutes after administration, Newman-Keuls test): statistically significant; onset of increase in motor activity after injection [2, 6]: ≤ 5 min; persistence of increase in motor activity [2, 6]: 60 min

Question: Which “activity levels (wrist actigraph)” value [3] does the source give for hypocretin here?
Answer: Its value is “increased activity levels”.

Question: What about the weight loss [3] of the same substance?
Answer: The weight loss was “greater weight loss”.

Question: And the running wheel activity [4]?
Answer: The running wheel activity was “increased running wheel activity”.

Question: And the weight gain [4]?
Answer: The weight gain was “decreased weight gain”.

Question: What about the running wheel activity [5] of the same substance?
Answer: The running wheel activity was “increased running wheel activity”.

Question: What about the weight gain [5] of the same substance?
Answer: Its weight gain is “decreased weight gain”.

Question: And the motor activity ([2]; first 30 minutes after injection, vs saline injection)?
Answer: The motor activity was “increased motor activity”.
